Earlier results on one compound are cited in patent US20140342022A1, “Natural Product Against Fatigue” (priority 2013, published 2014).

Structures are written as SMILES.

The series has as its system EBV-EA activation. The following applies: latently infected cells.

Take `O=c1c(O)c(-c2ccc(O)c(O)c2)oc2cc(O)cc(O)c12` [quercetin]: the EBV-EA activation result is “inhibits”.
